Reference: ChEMBL document CHEMBL5614408, “Indole-core inhibitors of influenza a neuraminidase: iterative medicinal chemistry and molecular modeling” (Eur J Med Chem, 2024)
Calls of active or inactive are those of the source. No cut-off for these calls is given here.

Columns and labels:
[1] = biological target: Neuraminidase (Influenza A virus (A/Puerto Rico/8/1934(H1N1)), UniProt P03468); assay: Inhibition of Influenza A virus A/Puerto Rico/8/34 (H1N1) neuraminidase assessed as reduction in neuraminidase activity by chemiluminescence based assay
[2] = system: Influenza A virus; assay: Antiviral activity against Influenza A virus A/Puerto Rico/8/34 (H1N1) infected in MDCK cells assessed as inhibition of viral infection preincubated with cells for 1 hrs followed by viral infection and measured after 48 hrs by hemagglutination assay; format: functional, organism-based
[3] = system: MDCK; assay: (§1) Cytotoxicity against MDCK cells assessed as inhibition of cell growth incubated for 48 hrs by MTS assay; format: toxicity, cell-based, Canis lupus familiaris; details: dog, mdck, 48 h
[4] = Selectivity index, ratio of CC50 for cytotoxicity against MDCK cells to IC50 for antiviral activity against Influenza A virus A/Puerto Rico/8/34 (H1N1) infected in MDCK cells; format: toxicity, cell-based; details: dog, read-out: Ratio CC50/IC50
[5] = system: Influenza A virus; assay: (§2) Antiviral activity against influenza A virus A/California/04/2009 (H1N1) infected in female BALB/c mouse model assessed as inhibition of viral replication in lungs at 50 mg/kg, po pretreated for 4 hrs followed by twice daily compound administration 4 hrs post viral infection and measured on day 4 post infection; format: functional, organism-based; details: time 4.0 day
[6] = system: Influenza A virus; assay: as §2, with “as reduction” for “as inhibition of viral replication”, “in body weight loss” for “in lungs”, “at 20” for “at 50”, “day 11” for “day 4”; format: functional, organism-based; details: time 11.0 day
[7] = system: Influenza A virus; assay: (§3) Antiviral activity against influenza A virus A/California/04/2009 (H1N1) infected in female BALB/c mouse model assessed as survival rate at 50 mg/kg, po pretreated for 4 hrs followed by twice daily compound administration 4 hrs post viral infection and measured on day 11 post infection relative to control; format: functional; details: 264 h, time 11 day
[8] = as §1; format: toxicity, cell-based, Canis lupus familiaris; details: dog, MDCK cells
[9] = system: Influenza A virus; assay: as §3, with “20” for “50”; format: functional; details: 264 h, time 11 day

Sequence of Neuraminidase (Influenza A virus (A/Puerto Rico/8/1934(H1N1)), UniProt P03468) (P03468 whole entry): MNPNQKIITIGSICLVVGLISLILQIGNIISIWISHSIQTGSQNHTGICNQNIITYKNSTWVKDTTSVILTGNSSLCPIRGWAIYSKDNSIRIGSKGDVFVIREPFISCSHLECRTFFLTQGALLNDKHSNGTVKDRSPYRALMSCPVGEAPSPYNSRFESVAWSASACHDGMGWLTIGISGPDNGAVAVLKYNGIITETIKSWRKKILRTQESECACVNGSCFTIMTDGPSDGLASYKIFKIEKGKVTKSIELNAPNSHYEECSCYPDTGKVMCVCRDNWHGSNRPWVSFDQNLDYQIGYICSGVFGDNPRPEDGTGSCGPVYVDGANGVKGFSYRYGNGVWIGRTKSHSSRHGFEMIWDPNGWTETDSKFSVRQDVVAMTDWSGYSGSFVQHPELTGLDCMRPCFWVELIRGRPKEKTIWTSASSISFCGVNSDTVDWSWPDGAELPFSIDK

| SMILES | IC50 [1] | also measured |
| --- | --- | --- |
| CC(=O)N1/C(=C/NCc2ccc(F)c(F)c2)C(=O)c2ccccc21 | 11.1 µM | – |
| CC(=O)N1/C(=C/Nc2cc(F)c(F)c(F)c2)C(=O)c2ccccc21 | 1 µM | – |
| COc1ccc(N/C=C2\C(=O)c3ccccc3N2C(C)=O)cc1 | 0.1 µM | IC50 [2]: 12 µM; CC50 [3]: 1810 µM; selectivity ratio [4]: 151 |
| CCC(=O)N1/C(=C/Nc2ccc(F)cc2)C(=O)c2ccccc21 | 0.43 µM | – |
| COc1ccc(OC)c(N/C=C2\C(=O)c3ccccc3N2C(C)=O)c1 | 0.99 µM | – |
| CC(=O)N1/C(=C/Nc2cc(F)cc(F)c2)C(=O)c2ccccc21 | 0.53 µM | – |
| CC(=O)N1/C(=C/Nc2cccc(Cc3ccccc3)c2)C(=O)c2ccccc21 | 0.2 µM | – |
| CCOC(=O)c1cccc(N/C=C2\C(=O)c3cc(Cl)ccc3N2C(C)=O)c1 | 2.03 µM | – |
| O=C1/C(=C\Nc2ccc(Cl)cc2)Nc2ccccc21 | 1.85 µM | – |
| CC(=O)N1/C(=C/Nc2ccccn2)C(=O)c2ccccc21 | 1.19 µM | – |
| CCOC(=O)c1cccc(N/C=C2\C(=O)c3ccccc3N2C(C)=O)c1 | 0.28 µM | – |
| COc1cccc(N/C=C2\C(=O)c3ccccc3N2C(C)=O)c1 | 0.37 µM | – |
| CC(=O)N1/C(=C/Nc2cccc(F)c2F)C(=O)c2ccccc21 | 0.95 µM | – |
| COc1ccc(N/C=C2\C(=O)c3cccnc3N2C(C)=O)cc1 | 2 µM | – |
| COc1ccc(N/C=C2\C(=O)c3cc(OC)ccc3N2C(C)=O)cc1 | 1.7 µM | – |
| CC(=O)N1/C(=C/Nc2cccc(S(N)(=O)=O)c2)C(=O)c2ccccc21 | 0.64 µM | – |
| CC(=O)N1/C(=C/Nc2ccc(F)cc2)C(=O)c2ccccc21 | 0.34 µM | – |
| CCC(=O)N1/C(=C/Nc2ccc(OC)cc2)C(=O)c2ccccc21 | 0.73 µM | – |
| COc1ccc(N/C=C2\C(=O)c3cc(Cl)ccc3N2C(C)=O)cc1 | 5.43 µM | – |
| CC(=O)N1/C(=C/Nc2ccncc2)C(=O)c2ccccc21 | 1.08 µM | – |
| CC(=O)N1/C(=C/Nc2cccc(Oc3ccccc3)c2)C(=O)c2ccccc21 | 0.5 µM | – |
| CC(=O)N1/C(=C/Nc2cccc(C(F)(F)F)c2)C(=O)c2ccccc21 | 0.96 µM | – |
| CC(=O)N1/C(=C/Nc2ccc(OC(F)(F)F)cc2)C(=O)c2ccccc21 | 5.13 µM | – |
| CC(=O)N1/C(=C/Nc2ccccc2)C(=O)c2ccccc21 | 0.37 µM | – |

| SMILES | IC50 [1] | also measured |
| --- | --- | --- |
| O=C1/C(=C\Nc2ccccc2)Nc2ccccc21 | 5.36 µM | – |
| CCC(=O)N1/C(=C/Nc2ccc(F)c(F)c2)C(=O)c2ccccc21 | 0.3 µM | – |
| O=C1/C(=C\NCc2ccccc2)Nc2ccccc21 | 12.9 µM | – |
| COc1ccccc1N/C=C1\C(=O)c2ccccc2N1C(C)=O | 1.08 µM | – |
| CCOC(=O)c1cccc(N/C=C2\C(=O)c3cccnc3N2C(C)=O)c1 | 9.84 µM | – |
| COc1cc(N/C=C2\C(=O)c3ccccc3N2C(C)=O)cc(OC)c1OC | 2.71 µM | – |
| CCOc1ccc(N/C=C2\C(=O)c3ccccc3N2C(C)=O)cc1 | 0.62 µM | – |
| COc1ccc(N/C=C2\C(=O)c3ccccc3N2C(C)=O)cc1OC | 25.2 µM | – |
| CC(=O)N1/C(=C/Nc2cccc(F)c2)C(=O)c2cccnc21 | 1.42 µM | – |
| CC(=O)N1/C(=C/Nc2ccccc2C(F)(F)F)C(=O)c2ccccc21 | 0.58 µM | – |
| CCC(=O)N1/C(=C/Nc2cccc(F)c2)C(=O)c2ccccc21 | 0.23 µM | IC50 [2]: 11.3 µM; CC50 [3]: 95 µM; selectivity ratio [4]: 8 |
| CC(=O)N1/C(=C/Nc2cccc(OC(F)(F)F)c2)C(=O)c2ccccc21 | 0.2 µM | Activity [5]: Active; IC50 [2]: 3 µM; Activity [6]: Active; CC50 [3]: 105 µM; selectivity ratio [4]: 35; survival at 50 mg/kg [7]: 30% |
| CC(=O)N1/C(=C/Nc2cccc(Oc3ccccc3)c2)C(=O)c2cccnc21 | – | IC50 [2]: 120 µM; CC50 at 48 h [8]: 540 µM; selectivity ratio [4]: 5 |
| CC(=O)N1/C(=C/Nc2ccc(Cc3ccccc3)cc2)C(=O)c2ccccc21 | 0.1 µM | IC50 [2]: 111 µM; CC50 [3]: 1740 µM; selectivity ratio [4]: 16 |
| COc1ccc(N/C=C2/Nc3ccccc3C2=O)cc1 | 3.01 µM | – |
| CC(=O)N1/C(=C/Nc2ccc(Cl)cc2)C(=O)c2ccccc21 | 1.39 µM | – |
| CCOC(=O)C1=C[C@@H](OC(CC)CC)[C@H](NC(C)=O)[C@@H](N)C1 [OSELTAMIVIR] | – | survival at 20 mg/kg [9]: 50% |
| CC(=O)N1/C(=C/Nc2ccc(Nc3ccccc3)cc2)C(=O)c2ccccc21 | 0.76 µM | – |
| CCOC(=O)c1cccc(N/C=C2\C(=O)c3cc(OC)ccc3N2C(C)=O)c1 | 1.33 µM | – |
| CC(=O)N1/C(=C/Nc2cccc(F)c2)C(=O)c2ccccc21 | 0.03 µM | Activity [5]: Active; IC50 [2]: 33.8 µM; Activity [6]: Active; CC50 [3]: 1480 µM; selectivity ratio [4]: 44; survival at 50 mg/kg [7]: 30% |
| CCCCOc1ccc(N/C=C2\C(=O)c3ccccc3N2C(C)=O)cc1 | 0.42 µM | – |
| COc1ccc(N/C=C2\C(=O)c3ccccc3N2C)cc1 | 1 µM | – |
| CC(=O)N1/C(=C/Nc2ccc(C(F)(F)F)cc2)C(=O)c2ccccc21 | 0.77 µM | – |
| CC(=O)N1/C(=C/Nc2ccc(F)c(F)c2)C(=O)c2ccccc21 | 0.47 µM | – |
